Data: patent US4122181A, “Analgesic (3-micotinamido-N(quinolyl) anthranilates and method of use” (Pierre Fabre S.A., priority 1975, dated 1978)
Values after ≈ are worked out from the molar mass of the structure shown. Where two headings read alike, the source gives them in different places.

What was measured:
[1] = Solubility characteristics
rats = type: in vivo, rat
Experimental: The ulceration index was determined in rats subjected to constraint for 7 hours.
The vehicle is a 4% aqueous solution of Tween 80 (TM - surface active agent).
The ulcerogenic index is calculated in accordance with the criteria established by […] et al. (Arch. Int. Pharmacodyn; 1971, 190, 6-13).

phenyl benzoquinone = experiment: Analgesic activity by the technique of SIEGMUND et al. (phenyl benzoquinone); type: in vivo; details: read-out: ED50, analgesic activity
Experimental: The compounds are administered orally 30 minutes before the injection of the phenyl benzoquinone solution.

[2] = Acute toxicity (LD50, method of MILLER and TAINTER) in the conventional mouse; details: in vivo, mouse about 20 g
Experimental: The toxicology study was carried out on the conventional mouse weighing about 20 g.
The substances were administered orally and intraperitoneally. The LD50 is calculated by the method of MILLER and TAINTER (Proc. Soc. Exper. Biol. Med. 1944, 57, 261).

rabbit tooth = experiment: Analgesic activity: electrical stimulation of rabbit tooth (CHEYMOL); type: in vivo; details: for time of maximum activity after administration: 100 mg/kg, administered orally; for analgesic activity compared with the control product (glaphenine): electrical stimulation of rabbit tooth
From the text: (b) Electrical stimulation of rabbit tooth in accordance with CHEYMOL - Therapie 1959, XIV, p. 350 to 360.

mice [3] = experiment: Potentialization of anesthesia induced by chloral hydrate in mice; type: in vivo, mouse; details: 350 mg/kg chloral hydrate i.p., compound 100 mg/kg orally 30 minutes in advance
mice [4] = experiment: Falling of mice placed on a turning horizontal bar (central properties); type: in vivo, mouse; details: bar of 4 cm diameter turning at 8 rpm
[5] = ip, intraperitoneal, read-out: LD50, intraperitoneally
[6] = rats, oral, dose 100 (unit not given), N = 10, constraint for 7 hours
[7] = oral, 30 minutes before injection of phenyl benzoquinone solution

SMILES | LD50 [2, 5] [mg/kg] | LD50 ([2]; oral, read-out: LD50, orally) [mg/kg] | Ulceration index (rats; [6]) | ED50 (phenyl benzoquinone; [7]) [mg/kg] | time of maximum activity after administration (rabbit tooth) | analgesic activity compared with the control product (glaphenine) (rabbit tooth) | other results
Nc1ccccc1C(=O)OCCNC(=O)c1cccnc1 [β-nicotinamido-ethyl anthranilate] | – | – | – | – | – | – | solubility in alcohol ([1]; alcohol): 2.5%; solubility in dimethyl acetamide ([1]; dimethyl acetamide): 100%; solubility in water ([1]; water): insoluble
CC(=O)Oc1ccccc1C(=O)O [Aspirin, reference compound] | – | – | – | – | – | – | Ulceration index (rats; rat, in vivo, po): 13.1; ED50 (phenyl benzoquinone; po): 100 mg/kg
O=C(OCC(O)CO)c1ccccc1Nc1ccnc2cc(Cl)ccc12 (stereo not shown) [Glaphenine, reference compound] | ~500 | 1500 ± 500 | 8.8 | 36 | – | – | –
O=C(NCCOC(=O)c1ccccc1Nc1ccnc2cc(C(F)(F)F)ccc12)c1cccnc1 [F 1636, β-nicotinamido-ethyl-N(7-trifluoromethyl-4-quinolyl)-anthranilate] | > 1000 | 3200 ± 500 | 4.2 | 15 | about 60 minutes | better activity than the control product (glaphenine) | solubility in dimethyl formamide ([1]; dimethyl formamide): 8%
O=C(NCCOC(=O)c1ccccc1Nc1ccnc2cc(Cl)ccc12)c1cccnc1 [F 1531, β-nicotinamido-ethyl-N(7-chloro 4-quinolyl)-anthranilate] | > 500 | 2800 ± 500 | 5.3 | 28 | about 60 minutes | better activity than the control product (glaphenine) | effect on anesthesia induced by chloral hydrate (mice [3]): neither potentialization nor decrease in the anesthesia; doses resulting in the falling of mice from turning horizontal bar (mice [4]): identical with the lethal doses; solubility ([1]; 1 n hcl): 200 mg/mL (≈ 448 mM)
